Measured values published in the NIST ThermoML archive (doi:10.1016/j.tca.2018.08.017).
“And” between values parts separate entries of the source, which are not always exact repeats. Equal values may be shown once. Numbers after ± are expanded uncertainties.

Conditions: 101.33 kPa, Liquid

CCCCCCCCCCCCCCCCCC [octadecane]
viscosity
Conditions | Concentric cylinders viscometry | Cone and plate viscometry
309.68 K | 3.276 ± 0.18 mPa·s | –
309.75 K | – | 3.24 ± 0.16 mPa·s
309.85 K | – | 3.3 ± 0.42 mPa·s
309.95 K | – | 3.22 ± 0.16 mPa·s and 3.2 ± 0.3 mPa·s
310.04 K | 3.245 ± 0.18 mPa·s | –
310.15 K | – | 3.21 ± 0.15 mPa·s and 3.28 ± 0.41 mPa·s and 3.42 ± 0.69 mPa·s
310.25 K | – | 3.18 ± 0.3 mPa·s
310.32 K | 3.229 ± 0.17 mPa·s | –
310.35 K | – | 3.22 ± 0.15 mPa·s and 3.26 ± 0.41 mPa·s
310.41 K | 3.218 ± 0.17 mPa·s | –
310.55 K | – | 3.18 ± 0.15 mPa·s
310.65 K | – | 3.25 ± 0.41 mPa·s and 3.14 ± 0.3 mPa·s and 3.38 ± 0.68 mPa·s
310.75 K | – | 3.17 ± 0.15 mPa·s
310.77 K | 3.19 ± 0.17 mPa·s | –
310.85 K | – | 3.24 ± 0.41 mPa·s
310.95 K | – | 3.15 ± 0.15 mPa·s and 3.12 ± 0.3 mPa·s
311.04 K | 3.171 ± 0.17 mPa·s | –
311.15 K | – | 3.14 ± 0.15 mPa·s and 3.22 ± 0.41 mPa·s and 3.35 ± 0.67 mPa·s
311.16 K | 3.159 ± 0.17 mPa·s | –
311.35 K | – | 3.14 ± 0.15 mPa·s and 3.2 ± 0.4 mPa·s and 3.1 ± 0.3 mPa·s
311.54 K | 3.13 ± 0.17 mPa·s | –
311.55 K | – | 3.14 ± 0.15 mPa·s
311.65 K | – | 3.19 ± 0.4 mPa·s and 3.32 ± 0.67 mPa·s
311.75 K | – | 3.12 ± 0.15 mPa·s and 3.07 ± 0.29 mPa·s
311.78 K | 3.118 ± 0.17 mPa·s | –
311.85 K | – | 3.17 ± 0.4 mPa·s
311.95 K | – | 3.11 ± 0.15 mPa·s
311.96 K | 3.099 ± 0.17 mPa·s | –
312.05 K | – | 3.05 ± 0.29 mPa·s
312.15 K | – | 3.1 ± 0.15 mPa·s and 3.15 ± 0.4 mPa·s and 3.28 ± 0.66 mPa·s
312.33 K | 3.071 ± 0.17 mPa·s | –
312.35 K | – | 3.1 ± 0.15 mPa·s and 3.14 ± 0.4 mPa·s
312.45 K | 3.065 ± 0.17 mPa·s | 3.04 ± 0.29 mPa·s
312.55 K | – | 3.07 ± 0.15 mPa·s
312.65 K | – | 3.12 ± 0.39 mPa·s and 3.26 ± 0.65 mPa·s
312.69 K | 3.043 ± 0.17 mPa·s | –
312.75 K | – | 3.07 ± 0.15 mPa·s and 3.01 ± 0.29 mPa·s
312.85 K | – | 3.1 ± 0.39 mPa·s
312.95 K | – | 3.07 ± 0.15 mPa·s
313.15 K | – | 3.04 ± 0.27 mPa·s [middle of 6 runs]
313.18 K | 3.011 ± 0.16 mPa·s and 3.01 ± 0.16 mPa·s | –
313.24 K | 3.009 ± 0.16 mPa·s | –
313.25 K | 3.009 ± 0.16 mPa·s | –
313.26 K | 3.008 ± 0.16 mPa·s and 3.011 ± 0.16 mPa·s | –
313.34 K | 3.01 ± 0.16 mPa·s | –
313.35 K | – | 3.01 ± 0.15 mPa·s and 3.07 ± 0.39 mPa·s
313.45 K | – | 2.98 ± 0.28 mPa·s
313.55 K | 2.985 ± 0.16 mPa·s | 3.01 ± 0.14 mPa·s
313.65 K | – | 3.05 ± 0.38 mPa·s and 3.21 ± 0.64 mPa·s
313.75 K | – | 3.01 ± 0.14 mPa·s
313.85 K | – | 3.04 ± 0.38 mPa·s and 2.96 ± 0.28 mPa·s
313.93 K | 2.956 ± 0.16 mPa·s | –
313.95 K | – | 3 ± 0.14 mPa·s
314 K | 2.951 ± 0.16 mPa·s | –
314.15 K | – | 2.99 ± 0.14 mPa·s and 3.02 ± 0.38 mPa·s and 3.18 ± 0.64 mPa·s
314.25 K | – | 2.93 ± 0.28 mPa·s
314.3 K | 2.931 ± 0.16 mPa·s | –
314.35 K | – | 2.96 ± 0.14 mPa·s and 3.01 ± 0.38 mPa·s
314.55 K | – | 2.97 ± 0.14 mPa·s and 2.92 ± 0.28 mPa·s
314.65 K | 2.907 ± 0.16 mPa·s | 3 ± 0.38 mPa·s and 3.16 ± 0.63 mPa·s
314.67 K | 2.905 ± 0.16 mPa·s | –
314.75 K | – | 2.97 ± 0.14 mPa·s
314.85 K | – | 2.98 ± 0.38 mPa·s
314.95 K | – | 2.94 ± 0.14 mPa·s and 2.9 ± 0.28 mPa·s
315.01 K | 2.882 ± 0.16 mPa·s | –
315.15 K | – | 2.96 ± 0.14 mPa·s and 2.97 ± 0.37 mPa·s and 3.13 ± 0.63 mPa·s
315.35 K | – | 2.91 ± 0.14 mPa·s and 2.95 ± 0.37 mPa·s and 2.88 ± 0.27 mPa·s
315.41 K | 2.854 ± 0.15 mPa·s | –
315.43 K | 2.857 ± 0.15 mPa·s | –
315.55 K | – | 2.91 ± 0.14 mPa·s
315.65 K | – | 2.94 ± 0.37 mPa·s and 2.87 ± 0.27 mPa·s and 3.1 ± 0.62 mPa·s
315.75 K | – | 2.9 ± 0.14 mPa·s
315.77 K | 2.833 ± 0.15 mPa·s | –
315.85 K | – | 2.92 ± 0.37 mPa·s
315.95 K | – | 2.89 ± 0.14 mPa·s
316.05 K | – | 2.84 ± 0.27 mPa·s
316.12 K | 2.81 ± 0.15 mPa·s | –
316.13 K | 2.812 ± 0.15 mPa·s | –
316.15 K | – | 2.88 ± 0.14 mPa·s and 2.9 ± 0.36 mPa·s and 3.08 ± 0.62 mPa·s
316.35 K | – | 2.88 ± 0.14 mPa·s and 2.89 ± 0.36 mPa·s and 2.83 ± 0.27 mPa·s
316.5 K | 2.785 ± 0.15 mPa·s | –
316.55 K | – | 2.88 ± 0.14 mPa·s
316.65 K | – | 2.87 ± 0.36 mPa·s and 2.81 ± 0.27 mPa·s and 3.06 ± 0.61 mPa·s
316.75 K | – | 2.88 ± 0.14 mPa·s
316.81 K | 2.771 ± 0.15 mPa·s | –
316.83 K | 2.763 ± 0.15 mPa·s | –
316.85 K | – | 2.86 ± 0.36 mPa·s
316.95 K | – | 2.88 ± 0.14 mPa·s
317.15 K | – | 2.86 ± 0.14 mPa·s [middle of 4 runs]
317.2 K | 2.74 ± 0.15 mPa·s | –
317.35 K | – | 2.83 ± 0.14 mPa·s and 2.84 ± 0.36 mPa·s
317.45 K | – | 2.79 ± 0.27 mPa·s
317.46 K | 2.732 ± 0.15 mPa·s | –
317.55 K | – | 2.82 ± 0.14 mPa·s
317.61 K | 2.715 ± 0.15 mPa·s | –
317.65 K | – | 2.84 ± 0.36 mPa·s and 3.02 ± 0.61 mPa·s
317.75 K | – | 2.84 ± 0.14 mPa·s and 2.83 ± 0.27 mPa·s
317.95 K | – | 2.82 ± 0.14 mPa·s and 2.83 ± 0.36 mPa·s
317.96 K | 2.694 ± 0.15 mPa·s | –
318.08 K | 2.693 ± 0.15 mPa·s | –
318.15 K | – | 2.83 ± 0.14 mPa·s [middle of 5 runs]
318.26 K | 2.679 ± 0.14 mPa·s | –
318.43 K | 2.672 ± 0.14 mPa·s | –
318.45 K | 2.665 ± 0.14 mPa·s | –
318.49 K | 2.653 ± 0.14 mPa·s | –
318.5 K | 2.654 ± 0.14 mPa·s | –
318.53 K | 2.655 ± 0.14 mPa·s | –
318.57 K | 2.661 ± 0.14 mPa·s | –
318.58 K | 2.662 ± 0.14 mPa·s | –
318.59 K | 2.655 ± 0.14 mPa·s | –
318.6 K | 2.659 ± 0.14 mPa·s | –
318.61 K | 2.657 ± 0.14 mPa·s | –
318.64 K | 2.654 ± 0.14 mPa·s | –
318.65 K | 2.66 ± 0.14 mPa·s | –
318.69 K | 2.655 ± 0.14 mPa·s | –
